Experimental data reported in US20220048915A1 (SHANGHAI PHARMACEUTICALS HOLDING CO., LTD., priority 2018, published 2022).
Values joined by “and” are separate entries in the source; they are usually repeats but may differ in a detail not shown here. Equal values may be shown once.

Key:
p38β = p38β (Homo sapiens, UniProt Q15759); test: In vitro inhibition of p38 kinase (LANCE Ultra TR-FRET); assay type: biochemical
TNF-α = test: Lipopolysaccharide (LPS)-induced inflammation model in mice, TNF-α in serum by ELISA; assay type: in vivo, C57BL/6J mice
Experimental: Male SPF-grade C57BL/6J mice, 6-8 weeks old, provided by Shanghai Ling Chang Biotechnology Co., Ltd. Animals were housed in clean-grade plastic cages (light and dark cycle 12/12 hours, temperature 22±2° C., humidity 50±10%, pellet feed, free drinking water).
1. Mice were weighed and administered according to an administration volume of 10 mL/kg, and oral administration by gavage was given for the first time. Each mouse was administrated at an interval of 3 minutes.
2. One hour after the first administration, LPS 5 mpk was administered intraperitoneally at an administration volume of 10 mL/kg.
3. 4 hours after the first administration, a second oral administration by gavage was given according to the administration volume of 10 mL/kg.
4. 6 hours after LPS intraperitoneal injection, mice were sacrificed, serum and cerebral cortex and hippocampus were sampled. After weighing the wet weight and they were put into liquid nitrogen for quick-freezing and storage.

BV-2 cells = test: Inhibition of inflammation in LPS-stimulated BV-2 cells (ELISA of inflammatory factors); assay type: cell-based; conditions: Mus musculus, 100 ng/mL LPS 4 hours
Summary of the method: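 BV-2 cells (passage 8) pre-treated 1 h with compound (4-fold dilutions from 10,000 nM, 0.1% DMSO), then stimulated with 100 ng/mL LPS plus compound for 4 h at 37 °C. Supernatant IL-10, TNFα etc. measured by ELISA (OD450); % inhibition vs high/low controls, IC50 by curve fit.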

[1] = Drug concentration in mice brain; assay type: in vivo, ICR mice; conditions: FIG. 1
Experimental: Blood samples were collected from the fundus vein of mice before and at 5, 15, 30, 60, 90, 120, 240, 480 and 1440 minutes of administration, respectively.
2-3 time points were taken for each mouse. The mice were sacrificed at 5, 15, 30, 60 and 1440 minutes after the administration (3 mice per time point), and the brains were taken, rinsed with saline, dried on filter paper and weighed.
Brain tissues were weighed, homogenized in saline (1:4, w/v). 50 μL of homogenized samples were taken, added with 300 μL of acetonitrile containing internal standard (propranolol, 25 ng/mL) to precipitate protein. After vortexing for 10 minutes and centrifuging at 6000 g for 10 minutes, 80 μL of supernatant was taken and placed in a 96-well plate for determination of drug concentration in tissue by UPLC/MS-MS, as shown in Table 2.

[2] = Pharmacokinetic properties in mice; assay type: in vivo, ICR mice
p38α = p38α (Homo sapiens, UniProt Q16539); test: In vitro inhibition of p38 kinase (LANCE Ultra TR-FRET); assay type: biochemical
Sequence of p38α (Q16539 whole entry): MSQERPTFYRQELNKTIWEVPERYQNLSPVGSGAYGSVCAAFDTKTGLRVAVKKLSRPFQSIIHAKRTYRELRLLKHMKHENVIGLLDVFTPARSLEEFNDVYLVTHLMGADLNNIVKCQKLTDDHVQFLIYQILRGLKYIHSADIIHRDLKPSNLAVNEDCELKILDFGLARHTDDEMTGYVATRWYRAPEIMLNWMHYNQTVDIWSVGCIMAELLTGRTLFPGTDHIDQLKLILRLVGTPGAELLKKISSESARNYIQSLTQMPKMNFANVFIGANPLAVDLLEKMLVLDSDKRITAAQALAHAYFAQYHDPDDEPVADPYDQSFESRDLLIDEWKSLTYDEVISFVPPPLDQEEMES

[3] = Pharmacokinetic properties in rats; assay type: in vivo, SD rats
Experimental: Ten male SD rats, weighing 180-220 g (provided by Shanghai Xipuerbikai Laboratory Animal Co., Ltd, Certificate No.: 20130016008116). The rats were fasted for feed for 12-16 hours before the experiment but water was allowed.
Blood samples were collected from the fundus vein of rats before and at 2, 5, 15, 30, 60, 90, 120, 240, 360, 480, 600 and 1440 minutes after administration, respectively.
Blood samples were collected from the fundus vein of rats before and at 5, 15, 30, 60, 90, 120, 240, 360, 480, 600, 1440 minutes after administration respectively.
Blood samples were centrifuged at 8000 rpm for 5 minutes, and supernatant plasma was taken. To 50 μL of plasma samples was added 300 μL of acetonitrile containing internal standard (propranolol, 25 ng/mL) to precipitate the protein. After vortexing for 10 minutes and centrifuging at 6000 g and 4° C. for 10 minutes, the supernatant was taken and placed in a 96-well plate for determination of drug concentration in plasma by UPLC/MS-MS.

[4] = male, ICR, mouse, plasma, po 10 mg/kg
[5] = male, SD, plasma, rat, po 6 mg/kg

Sequence of p38β (Q15759 whole entry): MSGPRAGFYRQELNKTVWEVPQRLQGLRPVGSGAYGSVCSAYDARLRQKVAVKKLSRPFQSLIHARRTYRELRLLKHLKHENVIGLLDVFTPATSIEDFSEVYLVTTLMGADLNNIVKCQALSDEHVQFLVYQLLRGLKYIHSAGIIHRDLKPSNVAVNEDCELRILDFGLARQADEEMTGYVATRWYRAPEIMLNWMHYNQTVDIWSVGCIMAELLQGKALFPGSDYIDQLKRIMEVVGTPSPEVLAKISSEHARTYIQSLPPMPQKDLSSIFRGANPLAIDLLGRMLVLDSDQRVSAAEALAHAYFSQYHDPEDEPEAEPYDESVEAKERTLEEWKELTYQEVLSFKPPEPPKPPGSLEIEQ

inhibitory activity against p38β kinase compared to the positive compound (p38β): superior inhibitory activity
IC50 (p38β; read-out: Kinase in vitro IC50(nM) p38β): 47.4 nM
IC50 (BV-2 cells; read-out: BV-2 Rf IC50): 6.47 nM
concentration in mouse brain relative to the positive compound ([1]; 1 h time point): more than one time
drug concentration in mice brain compared with the positive compound ([1]; different time points): significantly higher
clearance rate as fraction of that of the positive compound [2]: 4/11
absorption compared with the positive compound VX-745 at the same dose ([2]; 10 mg/kg): significantly higher
AUC relative to that of the positive compound ([2]; 10 mg/kg, 5-1440 minutes): 4.8 times
Thalf (iv) ([2]; iv 3 mg/kg): 2.5 h
clearance ([2]; male, ICR, mouse, plasma, iv 3 mg/kg): 6.67 mL/min/kg
Vd ([2]; male, ICR, mouse, plasma, iv 3 mg/kg, read-out: Vss (iv)): 1.2 L/kg
Cmax [2, 4]: 3000 ng/mL
MRT [2, 4]: 4.4 h
Tmax [2, 4]: 1.5 h
BA ([2]; po 10 mg/kg vs iv 3 mg/kg): 36.8%
AUClast (po) ([2]; po 10 mg/kg, 5-1440 minutes): 8944 (h)*(ng/mL)
inhibitory activity against p38α kinase compared to the positive compound (p38α): superior inhibitory activity
IC50 (p38α; read-out: Kinase in vitro IC50(nM) p38α): 9.87 nM
clearance ([3]; male, SD, plasma, rat, iv 3 mg/kg): 8.33 mL/min/kg
Vd ([3]; male, SD, plasma, rat, iv 3 mg/kg, read-out: Vss (iv)): 2.1 L/kg
Cmax [3, 5]: 994 ng/mL
MRT [3, 5]: 7.5 h
Tmax [3, 5]: 4.5 h
Thalf (iv) ([3]; rat, iv 3 mg/kg): 3.4 h
BA ([3]; rat, po 6 mg/kg vs iv 3 mg/kg): 68.9%
AUClast (po) ([3]; rat, po 6 mg/kg, 5-1440 minutes): 8857.1 (h)*(ng/mL)
clearance rate as fraction of that of the positive compound ([3]; rats): 1/3
absorption compared with the positive compound VX-745 at the same dose ([3]; rats, 6 mg/kg): significantly higher
AUC relative to that of the positive compound ([3]; rats, 6 mg/kg, 5-1440 minutes): 5.4 times
Structure (SMILES): O=c1ncn2nc(Oc3ccc(F)cc3F)ccc2c1-c1c(Cl)cccc1Cl [Compound I-4, 5-(2,6-dichlorophenyl)-2-(2,4-difluorophenoxy)-6H-pyrimido[1,6-b]pyridazin-6-one]
anti-inflammatory effect compared with the VX-745_8 mpk group (TNF-α; 8 mpk): better anti-inflammatory effect
levels of TNF-α compared with the mouse inflammation model group (G2) (TNF-α; 8 mpk, P<0.01): significantly reduced
TNF-α conc. (TNF-α; serum, individual animals, 8 mg/kg po bid interval 4 h, 6 hours after LPS 5 mpk ip): 11.9 pg/mL and 127.8 pg/mL and -39.4 pg/mL and 107.7 pg/mL and 92.4 pg/mL and 17.4 pg/mL and 97.1 pg/mL and -37.7 pg/mL and 86.6 pg/mL and 58.6 pg/mL and 89.4 pg/mL and 116.9 pg/mL
Emax (BV-2 cells; read-out: BV-2 Max Inh. (%)): 100%
